According to ChEMBL document CHEMBL1143950, “Antifungal and cytotoxic activities of some N-substituted aniline derivatives bearing a hetaryl fragment” (Bioorg Med Chem, 2008):
≈ marks a conversion by molar mass, not a printed value.

Tests used:
NCI-H460 = assay: Cytotoxicity against human H460 cells by SRB assay; type: functional, cell-based
SF-268 = assay: Cytotoxicity against human SF268 cells by SRB assay; type: functional, cell-based
Cryptococcus neoformans [1] = assay: Antifungal activity against Cryptococcus neoformans IM 983040 by micro-broth dilution method; type: functional
Cryptococcus neoformans [2] = assay: Antifungal activity against Cryptococcus neoformans IM 972724 by micro-broth dilution method; type: functional
Cryptococcus neoformans [3] = assay: Antifungal activity against Cryptococcus neoformans IM 042074 by micro-broth dilution method; type: functional
Cryptococcus neoformans [4] = assay: Antifungal activity against Cryptococcus neoformans IM 00319 by microbroth dilution method; type: functional
Cryptococcus neoformans [5] = assay: Antifungal activity against Cryptococcus neoformans IM 972751 by microbroth dilution method; type: functional
Cryptococcus neoformans [6] = assay: Antifungal activity against Cryptococcus neoformans IM 031631 by micro-broth dilution method; type: functional
Cryptococcus neoformans [7] = assay: Antifungal activity against Cryptococcus neoformans IM 031706 by micro-broth dilution method; type: functional
Cryptococcus neoformans [8] = assay: Antifungal activity against Cryptococcus neoformans IM 961951 by micro-broth dilution method; type: functional
Candida albicans = assay: Antifungal activity against Candida albicans ATCC 10231 by micro-broth dilution method; type: functional
Candida tropicalis = assay: Antifungal activity against Candida tropicalis C131 by micro-broth dilution method; type: functional
Saccharomyces cerevisiae = assay: Antifungal activity against Saccharomyces cerevisiae ATCC 9763 by microbroth dilution method; type: functional
Cryptococcus neoformans [9] = assay: Antifungal activity against Cryptococcus neoformans ATCC 32264 by microbroth dilution method; type: functional
Aspergillus fumigatus = assay: Antifungal activity against Aspergillus fumigatus ATCC 26934 by micro-broth dilution method; type: functional
Aspergillus flavus = assay: Antifungal activity against Aspergillus flavus ATCC 9170 by micro-broth dilution method; type: functional
Trichophyton rubrum = assay: Antifungal activity against Trichophyton rubrum C113 by microbroth dilution method; type: functional
Aspergillus niger = assay: Antifungal activity against Aspergillus niger ATCC 9029 by micro-broth dilution method; type: functional
Nannizzia gypsea = assay: Antifungal activity against Microsporum gypseum C115 by microbroth dilution method; type: functional
[10] = tested on: Trichophyton mentagrophytes; assay: Antifungal activity against Trichophyton mentagrophytes ATCC 9972 by micro-broth dilution method; type: functional
Cryptococcus neoformans [11] = assay: Antifungal activity against Cryptococcus neoformans IM 983036 by micro-broth dilution method; type: functional
MCF7 = assay: Cytotoxicity against human MCF7 cells by SRB assay; type: functional, cell-based

Structure (SMILES)	IC50 (NCI-H460) [µg/mL]	IC50 (SF-268) [µg/mL]	MIC (Cryptococcus neoformans [1]) [µg/mL]	MIC (Cryptococcus neoformans [2]) [µg/mL]	MIC (Cryptococcus neoformans [3]) [µg/mL]	MIC (Cryptococcus neoformans [4]) [µg/mL]	MIC (Cryptococcus neoformans [5]) [µg/mL]	MIC (Cryptococcus neoformans [6]) [µg/mL]	MIC (Cryptococcus neoformans [7]) [µg/mL]	MIC (Cryptococcus neoformans [8]) [µg/mL]	MIC (Candida albicans) [µg/mL]	MIC (Candida tropicalis) [µg/mL]	MIC (Saccharomyces cerevisiae) [µg/mL]	MIC (Cryptococcus neoformans [9]) [µg/mL]	MIC (Aspergillus fumigatus) [µg/mL]	MIC (Aspergillus flavus) [µg/mL]	MIC (Trichophyton rubrum) [µg/mL]	MIC (Aspergillus niger) [µg/mL]	MIC (Nannizzia gypsea) [µg/mL]	MIC [10] [µg/mL]	further results
COc1cccc2c1C(=O)c1c(O)c3c(c(O)c1C2=O)C[C@@](O)(C(=O)CO)C[C@@H]3O[C@H]1C[C@H](N)[C@H](O)[C@H](C)O1 [DOXORUBICIN]	0.18 (≈ 0.331 µM)	0.14 (≈ 0.258 µM)																			
Nc1nc(=O)[nH]cc1F [FLUCYTOSINE]			7.8 (≈ 60.4 µM)	3.9 (≈ 30.2 µM)	3.9 (≈ 30.2 µM)	15.6 (≈ 121 µM)	7.8 (≈ 60.4 µM)	7.8 (≈ 60.4 µM)	3.9 (≈ 30.2 µM)	7.8 (≈ 60.4 µM)											
Clc1ccc(NCc2ccco2)cc1Cl	8.7 (≈ 35.9 µM)	8.2 (≈ 33.9 µM)	100 (≈ 413 µM)	25 (≈ 103 µM)	25 (≈ 103 µM)	100 (≈ 413 µM)	100 (≈ 413 µM)	100 (≈ 413 µM)	100 (≈ 413 µM)	100 (≈ 413 µM)	62.5 (≈ 258 µM)	62.5 (≈ 258 µM)	50 (≈ 207 µM)	25 (≈ 103 µM)	50 (≈ 207 µM)	50 (≈ 207 µM)	3.12 (≈ 12.9 µM)	62.5 (≈ 258 µM)	6.25 (≈ 25.8 µM)	12.5 (≈ 51.6 µM)	MIC (Cryptococcus neoformans [11]): 25 µg/mL (≈ 103 µM); IC50 (MCF7): 8 µg/mL (≈ 33 µM)
OC(Cn1cncn1)(Cn1cncn1)c1ccc(F)cc1F [FLUCONAZOLE]			7.8 (≈ 25.5 µM)	3.9 (≈ 12.7 µM)	3.9 (≈ 12.7 µM)	1.9 (≈ 6.2 µM)	31.2 (≈ 102 µM)	31.2 (≈ 102 µM)	3.9 (≈ 12.7 µM)	7.8 (≈ 25.5 µM)											MIC (Cryptococcus neoformans [11]): 15.6 µg/mL (≈ 50.9 µM)
O=[N+]([O-])c1cccc(NCc2ccncc2)c1	> 10	< 10									100 (≈ 436 µM)	100 (≈ 436 µM)	50 (≈ 218 µM)	50 (≈ 218 µM)	100 (≈ 436 µM)	200 (≈ 872 µM)	6.25 (≈ 27.3 µM)	100 (≈ 436 µM)	12.5 (≈ 54.5 µM)	12.5 (≈ 54.5 µM)	IC50 (MCF7): > 10 µg/mL
CCC(C)n1ncn(-c2ccc(N3CCN(c4ccc(OCC5COC(Cn6cncn6)(c6ccc(Cl)cc6Cl)O5)cc4)CC3)cc2)c1=O (stereo not given) [ITRACONAZOLE]			< 0.015	0.25 (≈ 0.354 µM)	< 0.015	< 0.015	0.25 (≈ 0.354 µM)	0.5 (≈ 0.709 µM)	< 0.015	< 0.015											MIC (Cryptococcus neoformans [11]): < 0.015 µg/mL
Ic1ccc(NCc2ccncc2)cc1	> 10	> 10	100 (≈ 322 µM)	25 (≈ 80.6 µM)	50 (≈ 161 µM)	50 (≈ 161 µM)	50 (≈ 161 µM)	50 (≈ 161 µM)	100 (≈ 322 µM)	100 (≈ 322 µM)	50 (≈ 161 µM)	50 (≈ 161 µM)	50 (≈ 161 µM)	25 (≈ 80.6 µM)	50 (≈ 161 µM)	100 (≈ 322 µM)	6.25 (≈ 20.2 µM)	50 (≈ 161 µM)	12.5 (≈ 40.3 µM)	12.5 (≈ 40.3 µM)	MIC (Cryptococcus neoformans [11]): 50 µg/mL (≈ 161 µM); IC50 (MCF7): > 10 µg/mL
CC(=O)N1CCN(c2ccc(OC[C@H]3CO[C@](Cn4ccnc4)(c4ccc(Cl)cc4Cl)O3)cc2)CC1 [KETOCONAZOLE]											0.5 (≈ 0.941 µM)	0.125 (≈ 0.235 µM)	0.5 (≈ 0.941 µM)	0.25 (≈ 0.47 µM)	0.125 (≈ 0.235 µM)	0.5 (≈ 0.941 µM)	0.025 (≈ 0.047 µM)	0.25 (≈ 0.47 µM)	0.05 (≈ 0.0941 µM)	0.025 (≈ 0.047 µM)	
C=CCC(Nc1ccccc1)c1cccs1 (stereo not given)											> 250	> 250	> 250	> 250	> 250	> 250	125 (≈ 545 µM)	> 250	125 (≈ 545 µM)	125 (≈ 545 µM)	
